In one assay the test system is Amaranthus retroflexus. Put plainly: In planta growth experiment, A. retroflexus. It is filed as in vivo. The settings on record: shoots sprayed, 3 mM. From the text:
Seeds of Amaranthus retroflexus L. (Herbiseed, Twyford, UK) and Brassica napus L. cv. Mozart (Norddeutsche Pflanzenzucht Hans-Georg Lembke KG, Holtsee, Germany) were sown in vermiculite for germination. When cotyledons were fully expanded, seedlings were transplanted into plastic pots with a volume of 0.230 L filled with a substrate containing 50% bottom ash (0–4 mm), 30% peat and 20% pumice gravel (0–4 mm). Plants were watered every other day with 0.03% Hakaphos® Grün solution (Compo Expert GmbH, Münster, Germany) by sub-irrigation. Plants were grown in a climate chamber at 22 °C/20 °C day/night temperature and a day/night length of 16 h/8 h. Relative humidity was adjusted to 70% and light intensity was 320 μmol m^−2 s^−1 PAR (Photosynthetically Active Radiation) at plant level.
When seedlings reached the two-leaf growth stage, plant shoots were sprayed from the top with treatment solutions using spray bottles with a spraying angle of 35° (10 ml, neoLab Migge Laborbedarf-Vertriebs GmbH, Heidelberg, Germany). Treatment solutions were applied from a height of 8.5 cm above the pots. Each pot was sprayed once with a solution volume of 0.135 ml. Treatment solutions contained 2.4% (v/v) DMSO (dimethylsulfoxide, Duchefa Biochemie, Haarlem, the Netherlands), 0.1% (v/v) Tween® and the respective compound at a concentration of 3 mM. The control treatment contained 2.4% (v/v) DMSO, and 0.1% (v/v) Tween20. Further details are given in the Supplementary Information. […]
Experimental design and assessments of in planta experiments
We tested eleven compounds in a first experiment. In a follow-up experiment we tested selected […]
chalcone. Each treatment was repeated 12 times, except for oilseed rape in the second experiment (n=10). Pots were arranged in the growth chamber according to a fully randomized design. Initial growth of the second leaf of A. retroflexus plants was monitored by aquiring images of each plant from above from day zero to day two after treatment. Images were taken […]
from a fixed distance at 90° view angle using the camera Canon EOS 70D equipped with a Canon EF 14 mm/2.8 L II USM lens. Leaf area of single leaves was measured using the ImageJ software31, by drawing the leaf contours using a drawing tablet (Cintiq 22HD, Wacom Europe GmbH, Krefeld, Germany). Conversion of pixel to cm was achieved by using a target of known size inside the image. Six days after the treatment, half of the plants were harvested. Leaf area was assessed using a leaf area meter (LI3100C Area Meter, LI-Cor, Lincoln, Nebraska, USA) and samples were oven-dried at 65°C for seven days to obtain dry weight . Thirteen days after the treatment, this procedure was repeated with the second half of plants.
Chlorophyll fluorescence measurements […]
6 mm leaf discs were cut out of the second leaf and immediately placed into 96-well-plates filled with 300 µL 0.125 % Hoagland’s solution with 1 mM MES-KOH (MES-monohydrate, Merck, Darmstadt, Germany) buffered to a pH of 6.5. The treatment solution contained 1.6 % (v/v) DMSO, 0.1 % (v/v) Tween® 20 and 2',3',4',3,4-Pentahydroxychalcone at a concentration of 2 mM. The control treatment contained 1.6 % (v/v) DMSO, 0.1 % (v/v) Tween® 20. Each leaf disc was treated with 1.5 µL solution placed on top of the leaf discs. Plates were sealed with Parafilm and placed into a climate cabinet with 12h/12h day/night-length and a temperature of 22°C at a light intensity of 130 µmol m-2 s-1. 96 hours after treatment, chlorophyll fluorescence measurements were performed on leaf discs using an Imaging PAM M-Series fluorescence camera (Heinz Walz GmbH, Effeltrich, Germany). Leaf discs were dark adapted for 30 minutes, minimum and maximum chlorophyll fluorescence were obtained and leaf discs were illuminated for 30 minutes

The subject of assay [1] is Corynebacterium glutamicum ATCC13032. The assay can be described thus: Bacterial growth in microscale cultivation, C. glutamicum. It is filed as cell-based. The settings on record: relative to control; for activity at 4 µM / activity at 40 µM / activity at 400 µM / activity at 0.4 µM / activity at 0.3 µM / activity at 3 µM / activity at 30 µM: Corynebacterium glutamicum. As for the experimental part:
The following bacteria were cultivated in the presence of trans-chalcone derived inhibitors: Corynebacterium glutamicum ATCC13032[43], Escherichia coli K-12 MG1655[44], Pseudomonas putida KT2440[45], and Bacillus subtilis 168[46]. The growth of these bacteria was monitored in flower-well plates shaken at 1200 rpm as backscatter at 620 nm (gain 20) using a BioLector® microscale cultivation system (m2p labs, Baesweiler, Germany). For further experimental details please refer to the Supplementary Information.
medium or the appropriate minimal medium and shaken at 140 rpm overnight. For inoculation of
the main culture, cells equivalent to an optical density at 600 nm of 0.5 (C. glutamicum, E. coli,
and P. putida) or 0.25 (B. subtilis) in 800 µL medium were washed and resuspended in fresh
media. Inhibitor substances were dissolved in DMSO and added to the media to a final
Since the least polar trans-chalcone and 2’-hydroxychalcone precipitated in the growth media at
the highest concentrations, the maximal concentration of these compounds was reduced to 400
µM and 100 µM, respectively. The final backscatter at 620 nm, the growth rate (h-1), and the
duration of the lag phase of all cultures were determined in a BioLector microscale cultivation
system in comparison to negative controls supplemented with the solvent DMSO. A longer lag

[2] abbreviates: ATCC13032, complex medium, 4 µM, read-out: Final Backscatter.
[3] abbreviates: ATCC13032, complex medium, 4 µM, read-out: Growth rate.
[4] abbreviates: ATCC13032, complex medium, 40 µM, read-out: Final Backscatter.
[5] abbreviates: ATCC13032, complex medium, 40 µM, read-out: Growth rate.
The mark [6] stands for this setting: ATCC13032, minimal medium, 4 µM, read-out: Final Backscatter.
[7] abbreviates: ATCC13032, minimal medium, 4 µM, read-out: Growth rate.
The mark [8] stands for this setting: ATCC13032, minimal medium, 40 µM, read-out: Final Backscatter.
[9] abbreviates: ATCC13032, minimal medium, 40 µM, read-out: Growth rate.

Like-named read-outs stand apart in the source and are kept apart here.

Turning to `O=C(/C=C/c1ccccc1O)c1ccc(O)cc1O` [Compound 7, 2′,4′,2-Trihydroxychalcone], the Influence on plants result in the assay on Amaranthus retroflexus is reported as “No”. The activity at 4 µM was 100% in assay [1] (setting [2]), 99.1% in assay [1] (setting [3]), 98.1% in assay [1] (setting [6]) and 102% in assay [1] (setting [7]). In addition, the activity at 40 µM in assay [1] (setting [4]) came out at 98.3%; in assay [1] (setting [5]) it was 98.8%; in assay [1] (setting [8]), 101%; in assay [1] (setting [9]), 98.7%. For the same compound, the activity at 400 µM came out at 110% in assay [1] (ATCC13032, complex medium, 400 µM, read-out: Final Backscatter); 91.2% in assay [1] (ATCC13032, complex medium, 400 µM, read-out: Growth rate); 94.3% in assay [1] (ATCC13032, minimal medium, 400 µM, read-out: Final Backscatter); 52.9% in assay [1] (ATCC13032, minimal medium, 400 µM, read-out: Growth rate). For the same compound, the “Lag Phase” value in assay [1] (complex medium, 4 µM) is reported as 101,6%; in assay [1] (complex medium, 40 µM), 106,3%; in assay [1] (complex medium, 400 µM), 141,2%; in assay [1] (minimal medium, 4 µM), 100,0%; in assay [1] (minimal medium, 40 µM), 103,0%; in assay [1] (minimal medium, 400 µM) it was 181,9%.
Take `O=C(/C=C/c1ccc(O)c(O)c1)c1ccc(O)cc1O` [Compound 8, 2′,4′,3,4-Tetrahydroxy-chalcone]: the Influence on plants entry in the assay on Amaranthus retroflexus is on record as “No”. Also, the activity at 0.4 µM in assay [1] (ATCC13032, complex medium, 0.4 µM, read-out: Final Backscatter) is 96.6%; in assay [1] (ATCC13032, complex medium, 0.4 µM, read-out: Growth rate), 114%; in assay [1] (ATCC13032, minimal medium, 0.4 µM, read-out: Final Backscatter) it was 99%; in assay [1] (ATCC13032, minimal medium, 0.4 µM, read-out: Growth rate), 103%. In addition, the activity at 4 µM in assay [1] (setting [2]) is 107%; in assay [1] (setting [3]), 134%; in assay [1] (setting [6]), 101%; in assay [1] (setting [7]) it was 96.6%. Also, the activity at 40 µM in assay [1] (setting [4]) turned out to be 108%; in assay [1] (setting [5]), 129%; in assay [1] (setting [8]), 103%; in assay [1] (setting [9]), 102%. Further, the “Lag Phase” value is reported as 109,9% in assay [1] (complex medium, 0.4 µM); 95,4% in assay [1] (complex medium, 4 µM); 84,9% in assay [1] (complex medium, 40 µM); 99,3% in assay [1] (minimal medium, 0.4 µM); 98,6% in assay [1] (minimal medium, 4 µM); 100,7% in assay [1] (minimal medium, 40 µM).
As for `O=C(/C=C/c1cc(O)c(O)c(O)c1)c1ccc(O)cc1O` [Compound 9, 2′,4′,3,4,5-Pentahydroxychalcone], in the assay with Amaranthus retroflexus, the Influence on plants result is “No”. The activity at 0.3 µM in assay [1] (ATCC13032, complex medium, 0.3 µM, read-out: Final Backscatter) was 99.6%; in assay [1] (ATCC13032, complex medium, 0.3 µM, read-out: Growth rate), 104%; in assay [1] (ATCC13032, minimal medium, 0.3 µM, read-out: Final Backscatter), 99.9%; in assay [1] (ATCC13032, minimal medium, 0.3 µM, read-out: Growth rate), 104%. The activity at 3 µM was determined as 102% in assay [1] (ATCC13032, complex medium, 3 µM, read-out: Final Backscatter); 111% in assay [1] (ATCC13032, complex medium, 3 µM, read-out: Growth rate); 96.9% in assay [1] (ATCC13032, minimal medium, 3 µM, read-out: Final Backscatter); 103% in assay [1] (ATCC13032, minimal medium, 3 µM, read-out: Growth rate). The activity at 30 µM in assay [1] (ATCC13032, complex medium, 30 µM, read-out: Final Backscatter) amounted to 96.7%; in assay [1] (ATCC13032, complex medium, 30 µM, read-out: Growth rate), 112%; in assay [1] (ATCC13032, minimal medium, 30 µM, read-out: Final Backscatter), 97.7%; in assay [1] (ATCC13032, minimal medium, 30 µM, read-out: Growth rate), 97.3%. In addition, the “Lag Phase” value is recorded as 98,5% in assay [1] (complex medium, 0.3 µM); 98,0% in assay [1] (complex medium, 3 µM); 94,5% in assay [1] (complex medium, 30 µM); 98,6% in assay [1] (minimal medium, 0.3 µM); 98,6% in assay [1] (minimal medium, 3 µM); 98,6% in assay [1] (minimal medium, 30 µM).

Values taken from publication PMC4893628, “Chalcone-based Selective Inhibitors of a C4 Plant Key Enzyme as Novel Potential Herbicides” (Scientific Reports, 2016).
